Laboratory results reported in US9951389B2, “Diagnostic markers for treating cell proliferative disorders with telomerase inhibitors” (Geron Corporation, priority 2012, dated 2018).
Read-outs that look alike come from different tables or passages of the source. [nps] = N3'→P5' thiophosphoramidate linkage

Assays:
[1] = test system: animal tumor models, including ovarian and lung, both small cell and non-small cell; conditions: cited from earlier work
[2] = test system: epidermoid carcinoma, breast epithelium, renal carcinoma, renal adenocarcinoma, pancreatic, brain, colon, prostate, leukemia, lymphoma, myeloma, epidermal …; conditions: administered alone, in vitro; cited from earlier work
[3] = test system: advanced stage non-small cell lung cancer; test: Imetelstat NSC Lung Cancer Phase II (CP14B-012) Study, progression-free survival analysis by tumor telomere length subgroup; format: in vivo, human; conditions: for responsiveness (progression-free survival) of patients with short telomeres vs medium-long telomeres: telomere length subgroups by qPCR
Excerpt: The purpose of the NSC Phase II (CP14B-012) Study was to evaluate the efficacy and safety of imetelstat (GRN163L) as maintenance therapy for patients with advanced stage non-small cell lung cancer who have not progressed after 4 cycles of platinum based therapy. Participants were randomized in a 2:1 ratio to imetelstat plus standard of care versus standard of care alone. Participants who received bevacizumab with their induction chemotherapy continued to receive bevacizumab in this study.
The primary outcome measures were progression-free survival, defined as the time from randomization to documented disease progression or death, whichever occurred earlier, as determined by the investigator's assessment according to RECIST (Response Evaluation Criteria in Solid Tumors). The secondary outcome measures were objective response, time to all-cause mortality, and safety and tolerability (assessed by the incidence, nature, and severity of adverse events, laboratory abnormalities, and vital signs.
The patients were divided into two arms. In the experimental arm, patients received Imetelstat plus the standard of care (Bevacizumab or observation). Specifically, 9.4 mg/kg of Imetelstat (GRN163L) was given to patients over a 2 hour IV infusion on Day 1 and Day 8 of each 21 day cycle until disease progression. If administered, Bevacizumab was given on Day 1 of each 21-day cycle, with dosage and duration according to the FDA-approved Bevacizumab package insert.
In the control arm, patients received Bevacizumab or observation. If administered, Bevacizumab was given on Day 1 of each 21-day cycle, with dosage and duration according to the FDA-approved Bevacizumab package insert.
Samples were obtained from 61 of the 116 patients enrolled in the NSC Phase II (CP14B-012) Study described above. […] Each assay produced data for between 7 and 14545 foci from six regions (‘fields’) on a slide. The area and fluorescent intensity were recorded for each of the foci.
The IN Cell developer Toolbox 1.9 (GE Corp.) was utilized to quantitate the average telomere length from cells obtained from biological samples and subjected to telo-FISH. This software was used to draw lines around cell nuclei based on the location of the DAPI stain, and around cell telomeres based on the location of the telomere-specific fluorescence. Once each nucleus and telomere was encircled, the software calculated the intensity and the area of each individual telomere in the cells and determined the average telomere length for the cells derived from the biological sample according to Equation 1: 1.376×log2(intensity)−6.215×√(area) [Equation 1]. Results
This Example followed all of the procedures of Example 2 with the following changes to the qPCR protocol.

Substance	therapeutic efficacy in animal tumor models [1]	inhibitory activity in cell culture [2]	progression-free survival hazard ratio (95% CI) [3]	progression-free survival hazard ratio (95% CI) ([3]; Telo-FISH quartile split, small intensity/area (15/59, 25.4%), Example 3, Imetelstat vs control)	progression-free survival median (95% CI) ([3]; Telo-FISH quartile split, small intensity/area (15/59, 25.4%, shortest telomeres), Example 3, Imetelstat arm)	progression-free survival median (95% CI) ([3]; medium-long telomere subgroup (34 of 52 samples, 65%), second qPCR protocol of Example 4, Imetelstat arm)	progression-free survival median (95% CI) ([3]; medium-long telomere subgroup (38 of 57 samples, 67%), qPCR of Example 2, Imetelstat arm)	progression-free survival hazard ratio (95% CI) ([3]; medium-long telomere subgroup (65%), second qPCR protocol of Example 4, Imetelstat vs control)	progression-free survival events/N ([3]; medium-long telomere subgroup (67%), qPCR of Example 2, Imetelstat arm)	progression-free survival median (95% CI) ([3]; short telomere subgroup (18 of 52 samples, 35%), second qPCR protocol of Example 4, Imetelstat arm)	progression-free survival median (95% CI) ([3]; short telomere subgroup (19 of 57 samples, 33%), qPCR of Example 2, Imetelstat 9.4 mg/kg IV Day 1 and 8 of 21 day cycle plus standard of care)	progression-free survival events/N ([3]; short telomere subgroup (33%), qPCR of Example 2, Imetelstat arm)	progression-free survival hazard ratio (95% CI) ([3]; short telomere subgroup (33%), qPCR of Example 2, Imetelstat vs control arm)	progression-free survival hazard ratio (95% CI) ([3]; short telomere subgroup (35%), second qPCR protocol of Example 4, Imetelstat vs control)	responsiveness (progression-free survival) of patients with short telomeres vs medium-long telomeres ([3]; Example 2)	responsiveness (progression-free survival) of patients with short telomeres vs medium-long telomeres ([3]; Example 4)
GRN163: oligonucleotide having sequence TAGGGTTAGACAA (SEQ ID NO:3) and N3′→P5′ thiophosphoramidate (NPS) linkages (all [nps], sugars by position and methylation of C not given here)	therapeutically effective	has shown inhibitory activity														
Imetelstat			0.83 (0.36, 1.89)	0.26 (0.06, 1.1)	4.7 (1.41, NA)	3.03 (1.58, 4.47)	2.8 (1.51, 4.18)	0.65 (0.27, 1.56)	21/26	1.91 (1.22, NA)	4.05 (1.25, NA)	8/11	0.32 (0.1, 1.02)	0.55 (0.17, 1.84)	significantly more responsive compared to controls	significantly more responsive compared to controls
